Columns and labels:
pig weed = assay: greenhouse post-emergence herbicidal test; type: in vivo, Amaranthus retroflexus; conditions: application rate 1.0 kg/ha a.s.
From the text: (§1) The seeds of the test plants were sown separately for each species. For the post-emergence treatment, the test plants were first grown to a height of 3 to 15 cm, depending on the plant habit, and only then treated with the active ingredients which had been suspended or emulsified in water. For this purpose, the test plants were either sown directly and grown in the same containers, or they were first grown separately as seedlings and transplanted into the test containers a few days prior to treatment. The rate of application for the post-emergence treatment was 1.0 kg/ha of a.s. (active substance). Depending on the species, the plants were kept at 10-25° C. or 20-35° C. The test period extended over 2 to 4 weeks. During this time, the plants were tended, and their response to the individual treatments was evaluated. Evaluation was carried out using a scale from 0 to 100. 100 means no emergence of the plants, or complete destruction of at least the aerial parts, and 0 means no damage, or normal course of growth. The plants used in the greenhouse experiments belonged to the following species: [table]

lambsquarters = assay: greenhouse post-emergence herbicidal test; type: in vivo, Chenopodium album; conditions: application rate 1.0 kg/ha a.s.
From the text: as §1

green foxtail = assay: greenhouse post-emergence herbicidal test; type: in vivo, Setaria viridis; conditions: application rate 1.0 kg/ha a.s.
From the text: as §1

| SMILES | melting point [°C] | post-emergence action against pig weed (pig weed) | post-emergence action against lambsquarters (lambsquarters) | post-emergence action against green foxtail (green foxtail) |
| --- | --- | --- | --- | --- |
| CNC(=O)[C@H](CN)NC(=O)c1cn(C)nc1C(F)(F)F [Compound 3.6, N-[(1S)-1-(Aminomethyl)-2-(methylamino)-2-oxoethyl]-1-methyl-3-(trifluoromethyl)-1H-pyrazole-4-carboxamide] | 127 |  |  |  |
| CNC(=O)[C@H](CNC(=O)OC)NC(=O)c1cn(C)nc1C(F)(F)F [Compound 3.10, O-Methyl N-[(2S)-3-(methylamino)-2-({[1-methyl-3-(trifluoromethyl)-1H-pyrazol-4-yl]carbonyl}amino)-3-oxopropyl]carbamate] | 205 | very good | very good | very good |
| CNC(=O)[C@H](CNC(=O)OC(C)(C)C)NC(=O)c1cn(C)nc1C(F)(F)F [Compound 3.11, O-tert-Butyl N-[(2S)-3-(methylamino)-2-({[1-methyl-3-(trifluoromethyl)-1H-pyrazol-4-yl]carbonyl}amino)-3-oxopropyl]carbamate] | 78 |  |  |  |
